The results in this text go back to BindingDB's records for doi:10.1016/j.ejmech.2021.113681 (Moscow State University, 2021).

A value given as a limit tells only on which side of the number the result lay.

The experiment is described as follows: Inhibition of gp120 in HIV-1 subtype B #11578 harboring pseudotyped Env pWEAUd15.410.5017 infected in human TZM-bl cells assessed as reduction in viral infection pretreated for 30 mins before viral infection and measured after 3 days by luciferase based single cycle infection assay.

As usually defined, the IC50 is the midpoint of a concentration-inhibition curve. `Cc1nc([C@@H](CN)NC(=O)C(=O)Nc2ccc(Cl)cc2)sc1CO`: the IC50 was more than 27 µM. Consider `Cc1nc([C@H](CN)NC(=O)C(=O)Nc2ccc(Cl)cc2)sc1CO`, for which the IC50 is more than 27 µM. Turning to `Cc1nc([C@@H](CCN)NC(=O)C(=O)Nc2ccc(Cl)cc2)sc1CO`, the IC50 is more than 15 µM. Then `Cc1nc([C@H](CCN)NC(=O)C(=O)Nc2ccc(Cl)cc2)sc1CO`, with more than 15 µM; and `NC[C@@H](NC(=O)C(=O)NCc1ccc(Cl)c(F)c1)c1ncc(CO)s1`, with more than 15 µM. Turning to `NC[C@H](NC(=O)C(=O)NCc1ccc(Cl)c(F)c1)c1ncc(CO)s1`, the IC50 was more than 15 µM. With `NC[C@@H](NC(=O)CNCc1ccc(Cl)cc1)c1ncc(CO)s1`, the IC50 is more than 23.4 µM. Turning to `NC[C@H](NC(=O)CNCc1ccc(Cl)cc1)c1ncc(CO)s1`, the IC50 was more than 23.4 µM. As to `NC[C@@H](NC(=O)c1ccc(-c2ccc(Cl)cc2)[nH]1)c1nccs1`, the IC50 was determined as 3.3 µM.

With `NC[C@H](NC(=O)c1ccc(-c2ccc(Cl)cc2)[nH]1)c1nccs1`, the half-inhibitory concentration (IC50) came out at 0.8 µM. With `NCCNC(=O)c1ccc(-c2ccc(Cl)c(F)c2)[nH]1`, the IC50 came out at 3.8 µM. For the compound `O=C(NC1CCNCC1)c1ccc(-c2ccc(Cl)c(F)c2)[nH]1`, the IC50 is 6.6 µM.

Consider `CC1(C)CC(NC(=O)c2ccc(-c3ccc(Cl)c(F)c3)[nH]2)CC(C)(C)N1`, for which the IC50 amounted to 6.2 µM.

Take `O=C(NC1(c2nc(CO)cs2)CCNCC1)c1ccc(-c2ccc(C(F)(F)F)cc2)[nH]1`: the IC50 was found to be 11.4 µM. `O=C(N[C@H](CC1CCNCC1)c1nc(CO)cs1)c1ccc(-c2ccc(C(F)(F)F)cc2)[nH]1`: the IC50 is 12.4 µM. For the compound `O=C(N[C@@H](CC1CCNCC1)c1nc(CO)cs1)c1ccc(-c2ccc(C(F)(F)F)cc2)[nH]1`, the IC50 amounted to 8.5 µM. Turning to `Cc1nc([C@@H](CN)NC(=O)NC(=O)c2ccc(Cl)cc2)sc1CO`, the IC50 was more than 54 µM.

Take `Cc1nc([C@H](CN)NC(=O)NC(=O)c2ccc(Cl)cc2)sc1CO`: the concentration for half-maximal inhibition (IC50) is more than 54 µM.

With `NC[C@@H](NC(=O)c1ccc(C2CCCCC2)[nH]1)c1ncc(CO)s1`, the IC50 was more than 28 µM. Then `NC[C@H](NC(=O)c1ccc(C2CCCCC2)[nH]1)c1ncc(CO)s1`, with more than 28 µM; and `NC[C@@H](NC(=O)c1ccc(OCC2CCCCC2)cc1)c1ncc(CO)s1`, with more than 15 µM; and `NC[C@H](NC(=O)c1ccc(OCC2CCCCC2)cc1)c1ncc(CO)s1`, with more than 15 µM. For `NC[C@@H](NC(=O)c1ccc(NCC2CCCCC2)cc1)c1ncc(CO)s1`, the IC50 is more than 15 µM. In the case of `NC[C@H](NC(=O)c1ccc(NCC2CCCCC2)cc1)c1ncc(CO)s1`, the IC50 was more than 15 µM. As for `NC[C@@H](NC(=O)Cc1ccc(OCC2CCCCC2)cc1)c1ncc(CO)s1`, the IC50 was more than 25 µM. Regarding `NC[C@H](NC(=O)Cc1ccc(OCC2CCCCC2)cc1)c1ncc(CO)s1`, the half-maximal inhibitory concentration (IC50) was more than 25 µM. In the case of `Cc1nc([C@@H](CN)NC(=O)c2cc3ccccc3[nH]2)sc1CO`, the IC50 is more than 60 µM. In the case of `Cc1nc([C@H](CN)NC(=O)c2cc3ccccc3[nH]2)sc1CO`, the IC50 is more than 60 µM. As for `Cc1nc([C@@H](CN)NC(=O)c2cc3cc(Cl)ccc3[nH]2)sc1CO`, the half-maximal inhibitory concentration (IC50) was more than 40 µM. Take `Cc1nc([C@H](CN)NC(=O)c2cc3cc(Cl)ccc3[nH]2)sc1CO`: the IC50 was more than 40 µM.
